Results reported in ChEMBL document CHEMBL1157447, “Discovery and biological evaluation of novel alpha-glucosidase inhibitors with in vivo antidiabetic effect” (2008).

Assays:
Saccharomyces cerevisiae = assay: Inhibition of alpha glucosidase from baker's yeast at 50 uM
Rattus norvegicus [1] = assay: Antidiabetic activity in po dosed Streptozotocin induced diabetic Sprague-Dawley rat assessed as decrease in serum glucose level after 60 mins; type: functional; design: concentration or dose not given beside the values
Rattus norvegicus [2] = assay: Antidiabetic activity in po dosed Streptozotocin induced diabetic Sprague-Dawley rat assessed as decrease in serum glucose level after 120 mins; type: functional; design: scale not given: the % may be the effect or the level left

`Cc1ccc(Nc2nc(N)nc(COc3cccc4cccnc34)n2)cc1` was tested, and the inhibition (Saccharomyces cerevisiae) was 78.9% and the Activity (Rattus norvegicus [1]) was 20%.

`N#C/C(=C\Nc1cccc(F)c1)c1nc(-c2cc3ccccc3oc2=O)cs1` was tested, and the inhibition (Saccharomyces cerevisiae) was 75.2% and the Activity (Rattus norvegicus [1]) was 20%.

With `C[C@H]1O[C@H](O[C@H]2[C@H](O)[C@@H](O)[C@@H](OC3[C@@H](CO)OC(O)[C@H](O)[C@H]3O)O[C@@H]2CO)[C@H](O)[C@@H](O)[C@@H]1N[C@H]1C=C(CO)[C@@H](O)[C@H](O)[C@H]1O` (single isomer, unassigned) the inhibition (Saccharomyces cerevisiae) was 88.1%.

Compound `CCc1ccc(N2C(=O)NC(=O)/C(=C\c3cccn3CCOc3cccc(C)c3)C2=O)cc1` has an inhibition (Saccharomyces cerevisiae) of 86% and an Activity (Rattus norvegicus [1]) of 20%.

`COc1ccc(N2C(=O)NC(=O)/C(=C\c3cccn3CCOc3cccc(C)c3)C2=O)cc1Cl` gave an inhibition (Saccharomyces cerevisiae) of 88.7%, an Activity (Rattus norvegicus [2]) of 23% and an Activity (Rattus norvegicus [1]) of 5%.
